Experimental data published in US20230391772A1, “METHODS AND COMPOSITIONS FOR TARGETED PROTEIN DEGRADATION” (Ranok Therapeutics (Hangzhou) Co. Ltd., priority 2020, published 2023).

Legend:
HSP90a protein = biological target: T1, HSP90a protein (Homo sapiens, UniProt P07900); test: HSP90α-binding fluorescent polarization (FP) assay, BODIPY-labeled RNK04010 probe; conditions: FP competition with RNK04010 (BODIPY-labeled), 5 nM, 300 min at 25° C.
T1 construct: purchased BPS Bioscience 50298
How it was run: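 Displacement of a 5 nM fluorescent HSP90 ligand from the N-terminal HSP90a domain by FP. Incubation ran at 25° C: 120 min for the FITC-geldanamycin tracer, 300 min for the BODIPY-conjugated triazolone RNK04010.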

[1] = test system: MIA PaCa-2 human pancreatic carcinoma; test: MIA PaCa-2 CCK-8 proliferation assay; format: cell-based; conditions: Homo sapiens, MIA PaCa-2, 72 h, MIA PaCa-2 cells
How it was run: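 MIA PaCa-2 (2 copies KRAS(G12C)), NCI-H358 and NCI-H23 (1 copy KRAS(G12C) each) were exposed to compound in 3-fold serial dilutions from 20 μM to 1.02 nM. Viability was read as CCK-8 absorbance, and % inhibition was computed against DMSO-treated cells, with cell-free DMSO medium as blank.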

KRAS(G12C) = KRAS(G12C) (Homo sapiens, UniProt P01116, G12C); test: KRAS(G12C)/SOS1 homogeneous time-resolved fluorescence (HTRF) assay; set-up: purchased Cisbio 63ADK000CB16PEG; conditions: absence of GTP, 4° C. for 3 hr, read-out: KRAS (G12C) binding
Sequence of KRAS(G12C) (P01116 1-188 isoform P01116-2 G12C): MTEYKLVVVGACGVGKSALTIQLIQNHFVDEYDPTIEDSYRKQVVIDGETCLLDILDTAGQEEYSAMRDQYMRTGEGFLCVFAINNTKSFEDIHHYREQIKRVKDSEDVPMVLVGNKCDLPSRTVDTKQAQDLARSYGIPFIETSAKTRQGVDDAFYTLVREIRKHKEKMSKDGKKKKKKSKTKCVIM
How it was run: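 HTRF kit measuring compound-induced block of KRAS(G12C)-SOS1 interaction without GTP. Compounds tested as 3-fold serial dilutions down to 1.02 nM, incubated with reaction components 3 h at 4 °C in sealed plates before fluorescence read.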

| SMILES | IC50 (HSP90a protein) | EC50 [1] | IC50 (KRAS(G12C)) |
| --- | --- | --- | --- |
| C=CC(=O)N1CCN(c2nc(OC[C@@H]3C[C@@H](OCC(=O)NCc4ccc(-n5c(O)nnc5-c5cc(C(C)C)c(O)cc5O)cc4)CN3C)nc3c2CCN(c2cccc4cccc(Cl)c24)C3)C[C@@H]1CC#N [Compound 302, 2-(((3R,5S)-5-(((4-((S)-4-acryloyl-3-(cyanomethyl)piperazin-1-yl)-7-(8-chloronaphthalen-1-yl)-5,6,7,8-tetrahydropyrido[3,4-d]pyrimidin-2-yl)oxy)methyl)-1-methylpyrrolidin-3-yl)oxy)-N-(4-(3-(2,4-dihydroxy-5-isopropylphenyl)-5-hydroxy-4H-1,2,4-triazol-4-yl)benzyl)acetamide] | < 100 nM | 100 to 1000 nM | 100 to 1000 nM |
| C=CC(=O)N1CCN(c2nc(OC[C@@H]3C[C@H](C(=O)N4CCN(Cc5ccc(-n6c(C(=O)NCCN7CCN(S(C)(=O)=O)CC7)nnc6-c6cc(C(C)C)c(O)cc6O)cc5)CC4)CN3C)nc3c2CCN(c2cccc4cccc(Cl)c24)C3)C[C@@H]1CC#N [Compound 344, 4-[4-({4-[(3S,5S)-5-({[7-(8-chloronaphthalen-1-yl)-4-[(3S)-3-(cyanomethyl)-4-(pr-op-2-enoyl)piperazin-1-yl]-5H,6H,8H-pyrido[3,4-d]pyrimidin-2-yl]oxy}methyl)-1-methylpyrrolidine-3-carbonyl]piperazin-1-yl}methyl)phenyl]-5-(2,4-dihydroxy-5-isopropylphenyl)-N-[2-(4-methanesulfonylpiperazin-1-yl)ethyl]-1,2,4-triazole-3-carboxamide] | < 100 nM | 100 to 1000 nM | < 100 nM |
| C=CC(=O)N1CCN(c2nc(OC[C@@H]3C[C@H](N4CCC(C(=O)N5CCN(Cc6ccc(-n7c(C(=O)NCC(F)(F)F)nnc7-c7cc(C(C)C)c(O)cc7O)cc6)CC5)CC4)CN3C)nc3c2CCN(c2cccc4cccc(Cl)c24)C3)C[C@@H]1CC#N [Compound 314, 4-{4-[(4-{1-[(3S,5S)-5-({[7-(8-chloronaphthalen-1-yl)-4-[(3S)-3-(cyanomethyl)-4-(prop-2-enoyl)piperazin-1-yl]-5H,6H,8H-pyrido[3,4-d]pyrimidin-2-yl]oxy}methyl)-1-methylpyrrolidin-3-yl]piperidine-4-carbonyl}piperazin-1-yl)methyl]phenyl}-5-(2,4-dihydroxy-5-isopropylphenyl)-N-(2,2,2-trifluoroethyl)-1,2,4-triazole-3-carboxamide] | < 100 nM | < 100 nM | < 100 nM |
| C=CC(=O)N1CCN(c2nc(OC[C@@H]3CC[C@H](C(=O)N4CCN(Cc5cc(C(C)C)c(O)cc5O)CC4)N3C)nc3c2CCN(c2cccc4cccc(Cl)c24)C3)C[C@@H]1CC#N [Compound 329, 2-[(2S)-4[7-(8chloronaphthalen-1-yl)-2-{[(2S,5R)-5-{4-[(2,4-dihydroxy-5-isopropylphenyl)methyl]piperazine-1-carbonyl}-1-methylpyrrolidin-2-yl]methoxy}-5H,6H,8H-pyrido[3,4-d]pyrimidin-4-yl]-1-(prop-2-enoyl)piperazin-2-yl]acetonitrile] | < 100 nM | > 1000 nM | 100 to 1000 nM |
| C=CC(=O)N1CCN(c2nc(OC[C@@H]3C[C@H](N4CCC(C(=O)NCCc5ccc(-n6c(O)nnc6-c6cc(C(C)C)c(O)cc6O)cc5)CC4)CN3C)nc3c2CCN(c2cccc4cccc(Cl)c24)C3)C[C@@H]1CC#N [Compound 328, 1-[(3S,5S)-5-({[7-(8-chloronaphthalen-1-yl)-4-[(3S)-3-(cyanomethyl)-4-(prop-2-enoyl)piperazin-1-yl]-5H,6H,8H-pyrido[3,4-d]pyrimidin-2-yl]oxy}methyl)-1-methylpyrrolidin-3-yl]-N-(2-{4-[3-(2,4-dihydroxy-5-isopropylphenyl)-5-hydroxy-1,2,4-triazol-4-yl]phenyl}ethyl)piperidine-4-carboxamide] | < 100 nM | > 1000 nM | < 100 nM |
| C=C(F)C(=O)N1CCN(c2nc(OCCN3CCN(C(=O)C4CCN(Cc5ccc(-n6c(C(=O)NCC(F)(F)F)nnc6-c6cc(C(C)C)c(O)cc6O)cc5)CC4)CC3)nc3c2CCN(c2cccc4cccc(Cl)c24)C3)C[C@@H]1CC#N [Compound 207, (S)-4-(4-((4-(4-(2-((7-(8-chloronaphthalen-1-yl)-4-(3-(cyanomethyl)-4-(2-fluoroacryloyl)piperazin-1-yl)-5,6,7,8-tetrahydropyrido[3,4-d]pyrimidin-2-yl)oxy)ethyl)piperazine-1-carbonyl)piperidin-1-yl)methyl)phenyl)-5-(2,4-dihydroxy-5-isopropylphenyl)-N-(2,2,2-trifluoroethyl)-4H-1,2,4-triazole-3-carboxamide] | < 100 nM | < 100 nM | 100 to 1000 nM |
| C=CC(=O)N1CCN(c2nc(OC[C@@H]3C[C@H](N4CCC(C(=O)NCCOCCOc5ccc(-n6c(O)nnc6-c6cc(CC)c(O)cc6O)cc5)CC4)CN3C)nc3c2CCN(c2cccc4cccc(Cl)c24)C3)C[C@@H]1CC#N [Compound 335, 1-[(3S,5S)-5-({[7-(8-chloronaphthalen-1-yl)-4-[(3S)-3-(cyanomethyl)-4-(prop-2-enoyl)piperazin-1-yl]-5H,6H,8H-pyrido[3,4-d]pyrimidin-2-yl]oxy}methyl)-1-methylpyrrolidin-3-yl]-N-[2-(2-{4-[3-(5-ethyl-2,4-dihydroxyphenyl)-5-hydroxy-1,2,4-tri-azol-4-yl]phenoxy}ethoxy)ethyl]piperidine-4-carboxamide] | < 100 nM | > 1000 nM | < 100 nM |
| C=CC(=O)N1CCN(c2nc(OC[C@@H]3C[C@H](N4CCC5(CCN(C(=O)C6CCN(Cc7ccc(-n8c(C(=O)NCC(F)(F)F)nnc8-c8cc(C(C)C)c(O)cc8O)cc7)CC6)CC5)CC4)CN3C)nc3c2CCN(c2cccc4cccc(Cl)c24)C3)C[C@@H]1CC#N [Compound 311, 4-{4-[(4-{9-[(3S,5S)-5-({[7-(8-chloronaphthalen-1-yl)-4-[(3S)-3-(cyanomethyl)-4-(prop-2-enoyl)piperazin-1-yl]-5H,6H,8H-pyrido[3,4-d]pyrimidin-2-yl]oxy}methyl)-1-methylpyrrolidin-3-yl]-3,9-diazaspiro[5.5]undecane-3-carbonyl}piperidin-1-yl)methyl]phenyl}-5-(2,4-dihydroxy-5-isopropylphenyl)-N-(2,2,2-trifluoroethyl)-1,2,4-triazole-3-carboxamide] | < 100 nM | < 100 nM | < 100 nM |
| C=CC(=O)N1CCN(c2nc(OC[C@@H]3C[C@@H](NC(=O)C4CCN(Cc5ccc(-n6c(C(=O)NCC(F)(F)F)nnc6-c6cc(C(C)C)c(O)cc6O)cc5)CC4)CN3C)nc3c2CCN(c2cccc4cccc(Cl)c24)C3)C[C@@H]1CC#N [Compound 200, N-((3R,5S)-5-(((4-((S)-4-acryloyl-3-(cyanomethyl)piperazin-1-yl)-7-(8-chloronaphthalen-1-yl)-5,6,7,8-tetrahydropyrido[3,4-d]pyrimidin-2-yl)oxy)methyl)-1-methylpyrrolidin-3-yl)-1-(4-(3-(2,4-dihydroxy-5-isopropylphenyl)-5-((2,2,2-trifluoroethyl)carbamoyl)-4H-1,2,4-triazol-4-yl)benzyl)piperidine-4-carboxamide] | < 100 nM | < 100 nM | < 100 nM |
| C=CC(=O)N1CCN(c2nc(OC[C@@H]3CCCN(C(=O)C4CCN(Cc5ccc(-n6c(O)nnc6-c6cc(C(C)C)c(O)cc6O)cc5)CC4)C3)nc3c2CCN(c2cccc4cccc(Cl)c24)C3)C[C@@H]1CC#N [Compound 293, 2-((S)-1-acryloyl-4-(7-(8-chloronaphthalen-1-yl)-2-(((R)-1-(1-(4-(3-(2,4-dihydroxy-5-isopropylphenyl)-5-hydroxy-4H-1,2,4-triazol-4-yl)benzyl)piperidine-4-carbonyl)piperidin-3-yl)methoxy)-5,6,7,8-tetrahydropyrido[3,4-d]pyrimidin-4-yl)piperazin-2-yl)acetonitrile] | < 100 nM | 100 to 1000 nM | > 1000 nM |
| C=CC(=O)N1CCN(c2nc(OC[C@@H]3C[C@@H](NCc4ccc(-n5c(O)nnc5-c5cc(C(C)C)c(O)cc5O)cc4)CN3C)nc3c2CCN(c2cccc4cccc(Cl)c24)C3)C[C@@H]1CC#N [Compound 215, 2-((S)-1-acryloyl-4-(7-(8-chloronaphthalen-1-yl)-2-(((2S,4R)-4-((4-(3-(2,4-dihydroxy-5-isopropylphenyl)-5-hydroxy-4H-1,2,4-triazol-4-yl)benzyl)amino)-1-methylpyrrolidin-2-yl)methoxy)-5,6,7,8-tetrahydropyrido[3,4-d]pyrimidin-4-yl)piperazin-2-yl)acetonitrile] | < 100 nM | 100 to 1000 nM | 100 to 1000 nM |
| C=CC(=O)N1CCN(c2nc(OC[C@@H]3CN(C(=O)C4CCN(Cc5ccc(-n6c(O)nnc6-c6cc(C)c(O)cc6O)cc5)CC4)CCN3C)nc3c2CCN(c2cccc4cccc(Cl)c24)C3)C[C@@H]1CC#N [Compound 203, 2-((S)-1-acryloyl-4-(7-(8-chloronaphthalen-1-yl)-2-(((S)-4-(1-(4-(3-(2,4-dihydroxy-5-methylphenyl)-5-hydroxy-4H-1,2,4-triazol-4-yl)benzyl)piperidine-4-carbonyl)-1-methylpiperazin-2-yl)methoxy)-5,6,7,8-tetrahydropyrido[3,4-d]pyrimidin-4-yl)piperazin-2-yl)acetonitrile, trifluoroacetic acid] | < 100 nM | > 1000 nM | 100 to 1000 nM |
